Experimental data reported in ChEMBL document CHEMBL1201862, “PubChem BioAssay data set” (2004).
Blank lines part the entries; values can stand above or below the compound they belong to. Activity calls are given as the source filed them.

Tests used:
Type in all cases: functional
[1] = biological target: Melanin-concentrating hormone receptor 1 (Homo sapiens, UniProt Q99705); assay: Late-stage fluorescence-based counterscreen for antagonists of the G-protein coupled receptor 7 (GPR7): cell-based dose response assay to identify antagonists of the melanin-concentrating hormone receptor 1 (MCHR1) Set 5.
[2] = biological target: T1, Neuropeptides B/W receptor type 1 (Homo sapiens, UniProt P48145); assay: GPR7 antagonist potency, late-stage follow-up, cell-based, fluorescence, dose response, set 5 (AID 588566)
T1 sequence (P48145 whole entry): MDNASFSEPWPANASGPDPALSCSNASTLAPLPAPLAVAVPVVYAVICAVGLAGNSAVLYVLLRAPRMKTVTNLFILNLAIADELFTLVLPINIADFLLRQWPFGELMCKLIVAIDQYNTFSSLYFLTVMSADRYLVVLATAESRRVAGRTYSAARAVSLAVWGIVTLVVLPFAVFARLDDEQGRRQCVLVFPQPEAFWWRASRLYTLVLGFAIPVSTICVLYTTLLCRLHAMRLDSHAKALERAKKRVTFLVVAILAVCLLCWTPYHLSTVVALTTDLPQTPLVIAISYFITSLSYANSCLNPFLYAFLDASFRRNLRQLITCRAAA

[3] = biological target: Serine/threonine-protein kinase TBK1 (Homo sapiens, UniProt Q9UHD2); assay: Navigating the Kinome. Panel member name: TBK1
[4] = biological target: Serine/threonine-protein kinase pim-1 (Homo sapiens, UniProt P11309)
[5] = biological target: Dual specificity tyrosine-phosphorylation-regulated kinase 1B (Homo sapiens, UniProt Q9Y463); assay: Navigating the Kinome. Panel member name: DYRK1B
[6] = biological target: T2, Glycogen synthase kinase-3 alpha (Homo sapiens, UniProt P49840);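 further: GSK3A result taken from a broad kinome-wide kinase panel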
Aurora kinase B = Aurora kinase B (Homo sapiens, UniProt Q96GD4)
[7] = biological target: Dual specificity protein kinase CLK4 (Homo sapiens, UniProt Q9HAZ1)
Focal adhesion kinase 1 = Focal adhesion kinase 1 (Homo sapiens, UniProt Q05397);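 further: measured as one member of a kinome panel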
[8] = biological target: Macrophage colony-stimulating factor 1 receptor (Homo sapiens, UniProt P07333);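 further: value comes from the Navigating the Kinome screening panel, CSF1R member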
[9] = biological target: Dual specificity mitogen-activated protein kinase kinase 1 (Homo sapiens, UniProt Q02750); assay: Navigating the Kinome. Panel member name: MAP2K1
[10] = biological target: Cyclin-dependent kinase 9 (Homo sapiens, UniProt P50750);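 further: value from the CDK9 entry of a kinome-spanning kinase panel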
[11] = biological target: Ribosomal protein S6 kinase alpha-3 (Homo sapiens, UniProt P51812);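 further: measured within a kinome-wide profiling panel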
[12] = biological target: Cyclin-dependent kinase 8 (Homo sapiens, UniProt P49336); assay: Navigating the Kinome. Panel member name: CDK8
[13] = biological target: Protein kinase C theta type (Homo sapiens, UniProt Q04759); assay: Navigating the Kinome. Panel member name: PRKCQ
[14] = biological target: Vascular endothelial growth factor receptor 2 (Homo sapiens, UniProt P35968)
Activin receptor type-1 = Activin receptor type-1 (Homo sapiens, UniProt Q04771); assay: Navigating the Kinome. Panel member name: ACVR1
[15] = biological target: 5'-AMP-activated protein kinase catalytic subunit alpha-1 (Homo sapiens, UniProt Q13131)
[16] = biological target: Proto-oncogene tyrosine-protein kinase receptor Ret (Homo sapiens, UniProt P07949);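 further: measured within a kinome-wide profiling panel, RET as the panel member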
[17] = biological target: ALK tyrosine kinase receptor (Homo sapiens, UniProt Q9UM73);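 further: ALK tested as one member of a kinase panel screen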
[18] = biological target: Serine/threonine-protein kinase D3 (Homo sapiens, UniProt O94806);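 further: determined within a kinase panel screen, with PRKCN as the panel member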
[19] = biological target: Leukocyte tyrosine kinase receptor (Homo sapiens, UniProt P29376); assay: Navigating the Kinome. Panel member name: LTK
LIM domain kinase 1 = LIM domain kinase 1 (Homo sapiens, UniProt P53667); assay: Navigating the Kinome. Panel member name: LIMK1
[20] = biological target: Dual specificity protein kinase CLK2 (Homo sapiens, UniProt P49760)
[21] = biological target: cAMP-dependent protein kinase catalytic subunit alpha (Homo sapiens, UniProt P17612)
[22] = biological target: Serine/threonine-protein kinase PAK 4 (Homo sapiens, UniProt O96013);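 further: value obtained within a kinome profiling panel in which PAK4 was one of the panel members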
[23] = biological target: Tyrosine-protein kinase receptor TYRO3 (Homo sapiens, UniProt Q06418);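 further: TYRO3 value obtained as one member of a kinome-wide profiling panel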
[24] = biological target: Death-associated protein kinase 3 (Homo sapiens, UniProt O43293);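 further: measured as one member of a kinome-wide profiling panel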
[25] = biological target: Macrophage-stimulating protein receptor (Homo sapiens, UniProt Q04912); assay: Navigating the Kinome. Panel member name: MST1R
[26] = biological target: Dual specificity tyrosine-phosphorylation-regulated kinase 1A (Homo sapiens, UniProt Q13627);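 further: measured against DYRK1A as one member of a broad kinome profiling panel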
[27] = biological target: Serine/threonine-protein kinase Chk1 (Homo sapiens, UniProt O14757);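 further: measured as one member of a kinome-wide kinase profiling panel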
Aurora kinase A = Aurora kinase A (Homo sapiens, UniProt O14965);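 further: value from the Navigating the Kinome kinase panel profiling, panel entry STK6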
[28] = biological target: Casein kinase I isoform alpha (Homo sapiens, UniProt P48729)
[29] = biological target: Mitogen-activated protein kinase 8 (Homo sapiens, UniProt P45983);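 further: value comes from one member of a kinome-wide kinase profiling panel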
[30] = biological target: Vascular endothelial growth factor receptor 1 (Homo sapiens, UniProt P17948);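 further: measured within a kinome-wide profiling panel, FLT1 as the panel member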
[31] = biological target: Calcium/calmodulin-dependent protein kinase type II subunit alpha (Homo sapiens, UniProt Q9UQM7); assay: Navigating the Kinome. Panel member name: CAMK2A
[32] = biological target: Cyclin-dependent kinase 19 (Homo sapiens, UniProt Q9BWU1); assay: Navigating the Kinome. Panel member name: CDC2L6
[33] = biological target: Leucine-rich repeat serine/threonine-protein kinase 2 (Homo sapiens, UniProt Q5S007);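 further: value from a broad kinome-wide panel profiling study in which LRRK2 was one of the kinases tested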
[34] = biological target: T3, Glycogen synthase kinase-3 beta (Homo sapiens, UniProt P49841);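 further: value comes from a broad kinome profiling panel, with GSK3B as the panel member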
[35] = biological target: Cyclin-dependent kinase 7 (Homo sapiens, UniProt P50613);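 further: value comes from a kinome-wide kinase profiling panel in which CDK7 is one member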
[36] = biological target: Rho-associated protein kinase 1 (Homo sapiens, UniProt Q13464);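 further: measured within a broad kinome-wide panel profiling many kinases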
[37] = biological target: Mitogen-activated protein kinase kinase kinase kinase 2 (Homo sapiens, UniProt Q12851);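 further: measured as one member of a kinome-wide kinase panel, with MAP4K2 as the panel entry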
[38] = biological target: Fibroblast growth factor receptor 1 (Homo sapiens, UniProt P11362)
[39] = biological target: Mitogen-activated protein kinase kinase kinase kinase 4 (Homo sapiens, UniProt O95819)
[40] = biological target: cAMP-dependent protein kinase catalytic subunit PRKX (Homo sapiens, UniProt P51817)
[41] = biological target: Tyrosine-protein kinase ABL1 (Homo sapiens, UniProt P00519)
[42] = biological target: T2, Glycogen synthase kinase-3 alpha; assay: human GSK3 alpha kinase inhibition, dose response, selectivity assay for GSK3beta inhibitor project, biochemical, microfluidics, dry powder samples, set 2 (AID 623978)
[43] = biological target: T3, Glycogen synthase kinase-3 beta; assay: GSK3beta kinase inhibitors, dose response, biochemical, microfluidics, dry powder samples, set 2 (AID 623989)
[44] = biological target: Cyclin-dependent kinase 5/CDK5 activator 1 (Homo sapiens, UniProt Q00535); assay: CDK5-p25 kinase inhibition, dose response, selectivity assay for GSK3beta inhibitor project, biochemical, microfluidic mobility shift, dry powder, set 2 (AID 623979)

T3 sequence (P49841 whole entry): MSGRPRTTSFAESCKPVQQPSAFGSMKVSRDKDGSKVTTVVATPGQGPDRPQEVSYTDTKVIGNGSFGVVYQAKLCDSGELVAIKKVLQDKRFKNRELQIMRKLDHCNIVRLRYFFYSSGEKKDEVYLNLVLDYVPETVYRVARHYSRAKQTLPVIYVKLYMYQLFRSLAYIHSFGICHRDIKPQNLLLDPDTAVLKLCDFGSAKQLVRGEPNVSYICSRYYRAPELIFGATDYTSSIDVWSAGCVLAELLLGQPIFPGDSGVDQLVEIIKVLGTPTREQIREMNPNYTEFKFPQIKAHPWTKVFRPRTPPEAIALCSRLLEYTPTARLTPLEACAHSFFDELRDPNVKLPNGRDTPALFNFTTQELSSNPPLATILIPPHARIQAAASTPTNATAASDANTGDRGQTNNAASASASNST
T2 sequence (P49840 whole entry): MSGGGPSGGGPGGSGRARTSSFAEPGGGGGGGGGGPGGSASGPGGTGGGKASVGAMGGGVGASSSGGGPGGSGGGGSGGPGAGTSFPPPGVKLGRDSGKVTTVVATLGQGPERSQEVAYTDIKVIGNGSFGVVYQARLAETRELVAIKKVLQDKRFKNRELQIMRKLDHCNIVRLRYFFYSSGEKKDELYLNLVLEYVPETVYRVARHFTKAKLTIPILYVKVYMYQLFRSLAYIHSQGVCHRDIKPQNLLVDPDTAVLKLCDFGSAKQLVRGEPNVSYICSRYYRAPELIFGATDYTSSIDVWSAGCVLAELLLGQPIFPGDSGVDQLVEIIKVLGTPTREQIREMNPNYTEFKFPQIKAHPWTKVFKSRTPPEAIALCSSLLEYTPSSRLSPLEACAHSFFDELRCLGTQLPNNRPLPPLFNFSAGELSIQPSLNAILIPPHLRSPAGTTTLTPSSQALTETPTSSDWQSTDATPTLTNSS
Sequence of Serine/threonine-protein kinase pim-1 (P11309 whole entry): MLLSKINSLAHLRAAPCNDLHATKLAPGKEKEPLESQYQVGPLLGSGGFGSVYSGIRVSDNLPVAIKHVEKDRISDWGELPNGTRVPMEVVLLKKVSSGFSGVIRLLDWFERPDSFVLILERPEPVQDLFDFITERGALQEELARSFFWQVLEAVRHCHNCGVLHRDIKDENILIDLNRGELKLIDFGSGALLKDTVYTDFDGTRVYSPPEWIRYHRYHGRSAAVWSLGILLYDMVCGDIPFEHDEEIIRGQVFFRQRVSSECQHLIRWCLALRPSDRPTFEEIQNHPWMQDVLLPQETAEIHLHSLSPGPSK
Sequence of Mitogen-activated protein kinase kinase kinase kinase 4 (O95819 whole entry): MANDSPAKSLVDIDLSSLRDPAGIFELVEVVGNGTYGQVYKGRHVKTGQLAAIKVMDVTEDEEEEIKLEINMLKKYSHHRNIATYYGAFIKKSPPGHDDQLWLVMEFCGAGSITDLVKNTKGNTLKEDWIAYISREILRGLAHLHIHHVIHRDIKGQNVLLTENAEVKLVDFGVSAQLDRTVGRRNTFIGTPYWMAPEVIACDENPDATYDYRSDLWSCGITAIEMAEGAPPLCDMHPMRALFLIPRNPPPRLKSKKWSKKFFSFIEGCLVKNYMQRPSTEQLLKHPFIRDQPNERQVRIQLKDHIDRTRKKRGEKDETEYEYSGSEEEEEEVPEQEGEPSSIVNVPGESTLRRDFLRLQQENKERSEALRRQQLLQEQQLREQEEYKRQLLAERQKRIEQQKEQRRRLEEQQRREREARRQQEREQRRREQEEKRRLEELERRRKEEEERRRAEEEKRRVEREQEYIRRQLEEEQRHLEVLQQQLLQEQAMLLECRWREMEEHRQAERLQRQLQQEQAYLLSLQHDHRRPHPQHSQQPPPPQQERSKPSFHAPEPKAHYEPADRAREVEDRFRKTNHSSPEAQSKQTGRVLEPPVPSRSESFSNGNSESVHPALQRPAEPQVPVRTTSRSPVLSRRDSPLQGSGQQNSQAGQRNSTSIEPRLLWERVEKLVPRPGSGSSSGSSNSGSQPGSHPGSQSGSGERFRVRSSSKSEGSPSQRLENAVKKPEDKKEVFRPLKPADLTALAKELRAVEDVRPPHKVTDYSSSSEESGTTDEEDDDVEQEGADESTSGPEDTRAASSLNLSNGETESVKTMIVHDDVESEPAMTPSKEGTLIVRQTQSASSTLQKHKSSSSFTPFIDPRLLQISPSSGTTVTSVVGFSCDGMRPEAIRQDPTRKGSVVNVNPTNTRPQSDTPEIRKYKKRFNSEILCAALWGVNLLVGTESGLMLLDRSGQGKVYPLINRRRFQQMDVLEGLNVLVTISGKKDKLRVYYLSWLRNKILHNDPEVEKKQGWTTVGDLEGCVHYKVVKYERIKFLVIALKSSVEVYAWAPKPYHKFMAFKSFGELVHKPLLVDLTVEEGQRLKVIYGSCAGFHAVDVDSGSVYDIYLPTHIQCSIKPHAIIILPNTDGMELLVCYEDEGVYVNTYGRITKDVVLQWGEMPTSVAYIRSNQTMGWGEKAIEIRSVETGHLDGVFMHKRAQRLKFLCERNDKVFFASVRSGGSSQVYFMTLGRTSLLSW
Sequence of Mitogen-activated protein kinase kinase kinase kinase 2 (Q12851 whole entry): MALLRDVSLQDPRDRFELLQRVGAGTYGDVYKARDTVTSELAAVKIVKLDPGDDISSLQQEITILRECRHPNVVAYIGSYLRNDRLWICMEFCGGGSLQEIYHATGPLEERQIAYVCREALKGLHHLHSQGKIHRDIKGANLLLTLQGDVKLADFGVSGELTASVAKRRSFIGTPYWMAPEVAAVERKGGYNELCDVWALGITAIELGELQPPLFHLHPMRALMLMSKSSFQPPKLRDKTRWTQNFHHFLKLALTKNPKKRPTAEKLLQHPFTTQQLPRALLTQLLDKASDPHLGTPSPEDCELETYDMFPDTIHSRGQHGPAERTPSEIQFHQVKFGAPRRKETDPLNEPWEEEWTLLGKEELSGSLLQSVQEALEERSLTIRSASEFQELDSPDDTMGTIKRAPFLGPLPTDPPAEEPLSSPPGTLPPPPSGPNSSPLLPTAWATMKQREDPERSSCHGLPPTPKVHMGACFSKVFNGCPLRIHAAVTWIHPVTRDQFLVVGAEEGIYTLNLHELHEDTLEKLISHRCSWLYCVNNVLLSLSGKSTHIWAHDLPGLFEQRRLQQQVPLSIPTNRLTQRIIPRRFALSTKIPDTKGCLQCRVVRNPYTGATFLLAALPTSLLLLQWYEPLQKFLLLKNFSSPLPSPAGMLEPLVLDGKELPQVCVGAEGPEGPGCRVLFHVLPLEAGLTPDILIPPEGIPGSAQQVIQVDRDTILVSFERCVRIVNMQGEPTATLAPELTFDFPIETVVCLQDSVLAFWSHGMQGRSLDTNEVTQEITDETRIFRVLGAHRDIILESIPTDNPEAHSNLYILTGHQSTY
Sequence of Cyclin-dependent kinase 7 (P50613 whole entry): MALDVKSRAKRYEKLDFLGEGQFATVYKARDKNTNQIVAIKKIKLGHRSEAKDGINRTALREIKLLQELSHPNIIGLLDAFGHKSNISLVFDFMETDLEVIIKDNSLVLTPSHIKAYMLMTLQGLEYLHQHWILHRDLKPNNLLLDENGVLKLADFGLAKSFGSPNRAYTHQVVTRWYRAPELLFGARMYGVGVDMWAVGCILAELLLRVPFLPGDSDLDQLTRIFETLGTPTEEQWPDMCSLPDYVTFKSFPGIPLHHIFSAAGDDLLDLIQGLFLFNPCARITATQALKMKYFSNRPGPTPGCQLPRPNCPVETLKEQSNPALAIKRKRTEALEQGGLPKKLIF
Sequence of Casein kinase I isoform alpha (P48729 whole entry, canonical isoform): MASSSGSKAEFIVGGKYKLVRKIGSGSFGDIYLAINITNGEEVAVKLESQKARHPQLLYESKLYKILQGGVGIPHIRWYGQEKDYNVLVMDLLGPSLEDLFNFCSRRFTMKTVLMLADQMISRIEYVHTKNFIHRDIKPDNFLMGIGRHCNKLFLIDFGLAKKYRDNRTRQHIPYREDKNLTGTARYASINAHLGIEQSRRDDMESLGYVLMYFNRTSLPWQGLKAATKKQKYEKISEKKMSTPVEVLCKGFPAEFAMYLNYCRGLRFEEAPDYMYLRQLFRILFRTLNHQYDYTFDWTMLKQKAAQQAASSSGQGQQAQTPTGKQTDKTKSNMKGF
Sequence of Serine/threonine-protein kinase PAK 4 (O96013 whole entry): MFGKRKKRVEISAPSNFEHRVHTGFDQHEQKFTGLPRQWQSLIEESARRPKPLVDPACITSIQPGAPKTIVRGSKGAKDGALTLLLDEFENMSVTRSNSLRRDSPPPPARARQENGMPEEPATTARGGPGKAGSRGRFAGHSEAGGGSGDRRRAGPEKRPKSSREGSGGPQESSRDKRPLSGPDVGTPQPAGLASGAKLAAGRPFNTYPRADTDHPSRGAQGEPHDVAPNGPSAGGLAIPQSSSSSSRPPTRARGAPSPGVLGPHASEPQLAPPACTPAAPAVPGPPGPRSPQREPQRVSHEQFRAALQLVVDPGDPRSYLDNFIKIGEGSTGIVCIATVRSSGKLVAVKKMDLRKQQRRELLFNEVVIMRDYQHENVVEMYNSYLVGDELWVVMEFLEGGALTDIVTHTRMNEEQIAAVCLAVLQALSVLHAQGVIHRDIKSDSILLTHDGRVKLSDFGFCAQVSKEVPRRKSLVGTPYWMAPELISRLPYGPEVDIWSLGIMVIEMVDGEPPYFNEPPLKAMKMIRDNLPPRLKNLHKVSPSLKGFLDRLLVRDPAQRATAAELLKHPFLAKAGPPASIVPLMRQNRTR
Sequence of Mitogen-activated protein kinase 8 (P45983 whole entry): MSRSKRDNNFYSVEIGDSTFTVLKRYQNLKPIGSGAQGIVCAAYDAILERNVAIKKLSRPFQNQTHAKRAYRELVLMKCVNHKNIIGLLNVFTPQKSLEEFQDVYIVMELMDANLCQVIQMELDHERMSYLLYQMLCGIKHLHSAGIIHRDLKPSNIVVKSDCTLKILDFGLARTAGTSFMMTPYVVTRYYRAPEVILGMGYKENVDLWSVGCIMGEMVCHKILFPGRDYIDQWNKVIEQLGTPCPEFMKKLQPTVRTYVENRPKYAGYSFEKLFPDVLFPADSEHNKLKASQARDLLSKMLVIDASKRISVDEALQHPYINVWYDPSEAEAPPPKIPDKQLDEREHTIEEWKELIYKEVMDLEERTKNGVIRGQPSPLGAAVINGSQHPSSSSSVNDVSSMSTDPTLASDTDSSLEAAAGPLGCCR

IC50 [1]: 12.1 µM (inactive) | IC50 [2]: 0.569 µM (active)
Compound: COc1cccc(C(C#N)c2c(Cl)cnn(Cc3cccc4ccccc34)c2=O)c1 (centres undefined)

Ki [3]: 79.4 µM (active) | Ki [4]: 39.8 µM (active) | Ki [5]: 1.26 µM (active) | Ki [6]: 3.98 µM (active) | Ki (Aurora kinase B): 31.6 µM (active) | Ki [7]: 0.794 µM (active) | Ki (Focal adhesion kinase 1): 100 µM (active) | Ki [8]: > 100 µM (inactive) | Ki [9]: 10 µM (active) | Ki [10]: 0.501 µM (active) | Ki [11]: 25.1 µM (active) | Ki [12]: 0.794 µM (active) | Ki [13]: 3.16 µM (active) | Ki [14]: 7.94 µM (active) | Ki (Activin receptor type-1): 79.4 µM (active) | Ki [15]: 31.6 µM (active) | Ki [16]: 63.1 µM (active) | Ki [17]: 63.1 µM (active) | Ki [18]: 39.8 µM (active) | Ki [19]: 12.6 µM (active) | Ki (LIM domain kinase 1): 15.8 µM (active) | Ki [20]: 15.8 µM (active) | Ki [21]: 3.98 µM (active) | Ki [22]: 79.4 µM (active) | Ki [23]: 79.4 µM (active) | Ki [25]: 39.8 µM (active) | Ki [26]: 3.16 µM (active) | Ki [27]: 12.6 µM (active) | Ki (Aurora kinase A): 63.1 µM (active) | Ki [28]: 1.58 µM (active) | Ki [29]: 63.1 µM (active) | Ki [30]: 7.94 µM (active) | Ki [31]: 79.4 µM (active) | Ki [32]: > 100 µM (inactive) | Ki [33]: 10 µM (active) | Ki [34]: 5.01 µM (active) | Ki [35]: 12.6 µM (active) | Ki [36]: 1.58 µM (active) | Ki [37]: 10 µM (active) | Ki [38]: 63.1 µM (active) | Ki [39]: 25.1 µM (active) | Ki [40]: 15.8 µM (active) | Ki [41]: 79.4 µM (active)
Compound: NC(=O)c1cc2ccncc2s1
Ki [24]: 2.51 µM (active)

AC50 [42]: 10.4 µM (active) | AC50 [43]: 0.958 µM (active) | AC50 [44]: 16.8 µM (active)
Compound: COc1cc(/C=N/n2c(S)nnc2C2CCCCC2)cc(Br)c1O
